Measured values from ChEMBL document CHEMBL5532660, “Lead Optimization of BIBR1591 To Improve Its Telomerase Inhibitory Activity: Design and Synthesis of Novel Four Chemical Series with In Silico, In Vitro, and In Vivo Preclinical Assessments” (J Med Chem, 2024).

Experiments:
[1] = biological target: Telomerase reverse transcriptase (Homo sapiens) (UniProt O14746); test: Inhibition of telomerase (unknown origin) by RT-qPCR analysis relative to control; set-up: concentration or dose not given beside the values; settings: concentration not given here
[2] = system: NCI-H1299; test: Cytotoxicity against human NCI-H1299 cells overexpressing telomerase assessed as inhibition of cell growth incubated for 48 hrs by SRB assay; assay type: functional, cell-based; settings: NCI-H1299, 48 h
[3] = system: HepG2; test: Cytotoxicity against human HepG2 cells overexpressing telomerase assessed as inhibition of cell growth incubated for 48 hrs by SRB assay; assay type: functional, cell-based; settings: HepG2, 48 h
[4] = Cytotoxicity against HSF cells assessed as reduction in cell viability upto 50 ug/ml incubated for 48 hrs by SRB assay; assay type: toxicity, cell-based; settings: human, dose < 50 µg/ml
[5] = system: Huh-7; test: Cytotoxicity against human Huh-7 cells overexpressing telomerase assessed as inhibition of cell growth incubated for 48 hrs by SRB assay; assay type: functional, cell-based; settings: Huh-7, 48 h
[6] = system: Huh-7; test: Induction of apoptosis in human Huh-7 cells assessed as downregulation of BCL-2 protein expression by measuring fold change by ELISA relative to control; assay type: functional
[7] = system: Huh-7; test: Induction of apoptosis in human Huh-7 cells assessed as upregulation of BAX protein expression by measuring fold change by ELISA relative to control; assay type: functional
[8] = system: Huh-7; test: Induction of apoptosis in human Huh-7 cells assessed as upregulation of p53 protein expression by measuring fold change by ELISA relative to control; assay type: functional
[9] = system: NCI-H460; test: Cytotoxicity against human NCI-H460 cells overexpressing telomerase assessed as inhibition of cell growth incubated for 48 hrs by SRB assay; assay type: functional, cell-based; settings: NCI-H460, 48 h
[10] = system: A549; test: Cytotoxicity against human A549 cells overexpressing telomerase assessed as inhibition of cell growth incubated for 48 hrs by SRB assay; assay type: functional, cell-based; settings: A549, 48 h
[11] = system: Ehrlich; test: Antitumor activity against mouse EAC cells implanted in Swiss albino mouse assessed as increase in caspase-3 level in serum at 5 mg/kg, ip administered for 2 weeks by ELISA relative to control; assay type: functional
[12] = system: Ehrlich; test: Antitumor activity against mouse EAC cells implanted in Swiss albino mouse assessed as increase in erythrocyte count at 5 mg/kg, ip administered for 2 weeks relative to control; assay type: functional
[13] = system: Ehrlich; test: Antitumor activity against mouse EAC cells implanted in Swiss albino mouse assessed as reduction in total leukocytes count at 5 mg/kg, ip administered for 2 weeks relative to control; assay type: functional; set-up: scale not given: the % may be the effect or the level left
[14] = system: Ehrlich; test: Antitumor activity against mouse EAC cells implanted in Swiss albino mouse assessed as total leukocyte count at 5 mg/kg, ip administered for 2 weeks (reference value: 7.11 +/- 0.27 x10^3/mm3); assay type: functional
[15] = system: Ehrlich; test: Antitumor activity against mouse EAC cells implanted in Swiss albino mouse assessed as reduction in tumor weight at 5 mg/kg, ip administered for 2 weeks and measured on day 5, 10 and 14 relative to control; assay type: functional; set-up: scale not given: the % may be the effect or the level left
[16] = system: Ehrlich; test: Antitumor activity against mouse EAC cells implanted in Swiss albino mouse assessed as hemoglobin level at 5 mg/kg, ip administered for 2 weeks (reference value: 9.25 +/- 0.26 g/dL); assay type: functional
[17] = system: Ehrlich; test: Antitumor activity against mouse EAC cells implanted in Swiss albino mouse assessed as erythrocyte count at 5 mg/kg, ip administered for 2 weeks (reference value: 4.1 +/- 0.23 x 10^6/mm3); assay type: functional
[18] = system: Ehrlich; test: Antitumor activity against mouse EAC cells implanted in Swiss albino mouse assessed as appearance of granulation tissue at 5 mg/kg, ip administered for 2 weeks by H and E staining based light microscopic analysis (reference value: 0 to 25%); assay type: functional
[19] = system: Ehrlich; test: Antitumor activity against mouse EAC cells implanted in Swiss albino mouse assessed as intact anaplastic tumor cells at 5 mg/kg, ip administered for 2 weeks by H and E staining based light microscopic analysis (reference value: 75 to 100%); assay type: functional
[20] = system: Ehrlich; test: Antitumor activity against mouse EAC cells implanted in Swiss albino mouse assessed as inflammatory cell infiltration at 5 mg/kg, ip administered for 2 weeks by H and E staining based light microscopic analysis (reference value: 0 to 25%); assay type: functional
[21] = system: Ehrlich; test: Antitumor activity against mouse EAC cells implanted in Swiss albino mouse assessed as reduction in TNF-alpha level at 5 mg/kg, ip administered for 2 weeks by ELISA relative to control; assay type: functional; set-up: scale not given: the % may be the effect or the level left
[22] = system: Ehrlich; test: Antitumor activity against mouse EAC cells implanted in Swiss albino mouse assessed as apoptotic cells at 5 mg/kg, ip administered for 2 weeks by H and E staining based light microscopic analysis (reference value: 25 to 50%); assay type: functional
[23] = system: Ehrlich; test: Antitumor activity against mouse EAC cells implanted in Swiss albino mouse assessed as necrosis at 5 mg/kg, ip administered for 2 weeks by H and E staining based light microscopic analysis (reference value: 0 to 25%); assay type: functional
[24] = system: Ehrlich; test: Antitumor activity against mouse EAC cells implanted in Swiss albino mouse assessed as increase in hemoglobin level at 5 mg/kg, ip administered for 2 weeks relative to control; assay type: functional
[25] = system: Ehrlich; test: Antitumor activity against mouse EAC cells implanted in Swiss albino mouse assessed as mean corpuscular hemoglobin at 5 mg/kg, ip administered for 2 weeks (reference value: […] +/- 0.48 pg); assay type: functional
[26] = system: Ehrlich; test: Antitumor activity against mouse EAC cells implanted in Swiss albino mouse assessed as mean corpuscular volume at 5 mg/kg, ip administered for 2 weeks (reference value: 46.78 +/- 0.43 fL); assay type: functional
[27] = system: Ehrlich; test: Antitumor activity against mouse EAC cells implanted in Swiss albino mouse assessed as reduction in tumor volume at 5 mg/kg, ip administered for 2 weeks and measured on day 5, 10 and 14 relative to control; assay type: functional; set-up: scale not given: the % may be the effect or the level left
[28] = system: Ehrlich; test: Antitumor activity against mouse EAC cells implanted in Swiss albino mouse assessed as platelet count at 5 mg/kg, ip administered for 2 weeks (reference value: 963.66 +/- 29.63 x10^3/mm3); assay type: functional
[29] = system: Ehrlich; test: Antitumor activity against mouse EAC cells implanted in Swiss albino mouse assessed as increase in serum SOD level at 5 mg/kg, ip administered for 2 weeks by ELISA relative to control; assay type: functional
[30] = system: Ehrlich; test: Antitumor activity against mouse EAC cells implanted in Swiss albino mouse assessed as reduction in total platelet count at 5 mg/kg, ip administered for 2 weeks relative to control; assay type: functional; set-up: scale not given: the % may be the effect or the level left

Chain of Telomerase reverse transcriptase (Homo sapiens) (O14746 whole entry): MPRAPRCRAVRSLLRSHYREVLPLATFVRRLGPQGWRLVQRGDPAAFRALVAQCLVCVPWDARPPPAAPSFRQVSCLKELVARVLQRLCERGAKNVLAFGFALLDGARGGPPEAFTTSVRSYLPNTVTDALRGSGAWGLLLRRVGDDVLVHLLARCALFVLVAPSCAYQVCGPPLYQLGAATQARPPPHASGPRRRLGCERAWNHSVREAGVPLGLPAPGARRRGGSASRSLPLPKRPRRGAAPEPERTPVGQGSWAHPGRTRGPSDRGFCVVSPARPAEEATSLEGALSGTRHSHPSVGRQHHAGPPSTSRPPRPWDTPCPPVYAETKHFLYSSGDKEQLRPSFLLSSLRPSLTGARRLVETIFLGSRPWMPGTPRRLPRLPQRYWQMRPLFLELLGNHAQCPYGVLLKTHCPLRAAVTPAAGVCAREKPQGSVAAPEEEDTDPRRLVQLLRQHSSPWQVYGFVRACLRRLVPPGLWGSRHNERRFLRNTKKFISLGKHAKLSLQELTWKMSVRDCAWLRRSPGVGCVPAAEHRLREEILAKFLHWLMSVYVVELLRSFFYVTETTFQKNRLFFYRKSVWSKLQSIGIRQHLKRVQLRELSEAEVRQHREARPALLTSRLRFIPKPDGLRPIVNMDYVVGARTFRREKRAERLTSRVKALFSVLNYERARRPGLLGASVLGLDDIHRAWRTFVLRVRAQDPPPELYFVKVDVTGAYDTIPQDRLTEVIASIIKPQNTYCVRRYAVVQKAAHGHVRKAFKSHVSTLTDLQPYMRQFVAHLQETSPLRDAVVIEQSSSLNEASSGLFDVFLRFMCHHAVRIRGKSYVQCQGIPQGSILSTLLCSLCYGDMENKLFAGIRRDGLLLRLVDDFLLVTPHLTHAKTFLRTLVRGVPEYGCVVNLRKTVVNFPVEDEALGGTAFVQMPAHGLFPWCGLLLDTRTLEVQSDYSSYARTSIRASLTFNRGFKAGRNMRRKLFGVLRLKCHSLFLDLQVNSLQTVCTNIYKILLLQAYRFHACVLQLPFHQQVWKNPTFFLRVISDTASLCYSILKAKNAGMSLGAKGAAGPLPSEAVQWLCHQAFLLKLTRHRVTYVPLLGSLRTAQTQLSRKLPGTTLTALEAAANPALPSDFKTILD

## CC(=O)c1ccc(NC(=O)CSc2nc(O)c(C#N)c(-c3cccnc3)n2)cc1
[1]
  inhibition: 30.2%

## N#Cc1c(O)nc(SCC(=O)Nc2nc3ccccc3s2)nc1-c1cccnc1
[1]
  inhibition: 32.1%

## N#Cc1c(O)nc(SCC(=O)Nc2ccc(Cl)c(C(F)(F)F)c2)nc1-c1cccnc1
[1]
  inhibition: 8.91%

## N#Cc1c(O)nc(SCC(=O)Nc2cccc3ccccc23)nc1-c1cccnc1
[1]
  inhibition: 34.5%

## N#Cc1ccc(NC(=O)CSc2nc(O)c(C#N)c(-c3cccnc3)n2)cc1
[1]
  inhibition: 21.7%

## N#Cc1c(O)nc(SCC(=O)Nc2cc(Cl)ccc2Cl)nc1-c1cccnc1
[1]
  inhibition: 5.58%

## N#Cc1c(O)nc(SCC(=O)Nc2sc3c(c2C#N)CCCC3)nc1-c1cccnc1
[1]
  inhibition: 55.6%
[2]
  IC50: 23 µM
[3]
  IC50: 18 µM
[4]
  Activity: Non-Toxic
[5]
  IC50: 33 µM
[6]
  fold change (FC): 0.77
[7]
  fold change (FC): 1.14
[8]
  fold change (FC): 1.13
[9]
  IC50: 41 µM
[10]
  IC50: 86 µM

## N#Cc1c(O)nc(SCC(=O)Nc2nc3ccccc3[nH]2)nc1-c1cccnc1
[1]
  inhibition: 32.6%

## N#Cc1c(O)nc(SCC(=O)Nc2cccc([N+](=O)[O-])c2)nc1-c1cccnc1
[1]
  inhibition: 28.1%

## COc1ccc(NC(=O)CSc2nc(O)c(C#N)c(-c3cccnc3)n2)cc1
[1]
  inhibition: 46.1%

## N#Cc1c(O)nc(SCC(=O)Nc2sc3c(c2C#N)CCC3)nc1-c1cccnc1
[1]
  inhibition: 58.6%
[2]
  IC50: 29 µM
[3]
  IC50: 41 µM
[4]
  Activity: Non-Toxic
[5]
  IC50: 25 µM
[6]
  fold change (FC): 0.8
[7]
  fold change (FC): 1.08
[8]
  fold change (FC): 1.07
[9]
  IC50: 45 µM
[10]
  IC50: 90 µM

## C/C(=C\C(=O)Nc1ccc(N2CCOCC2)cc1C(=O)O)c1ccc2ccccc2c1
[1]
  inhibition: 51.6%

## N#Cc1c(O)nc(SCC(=O)Nc2ccc3ccccc3c2)nc1-c1cccnc1
[1]
  inhibition: 26%

## COc1cccc2c1C(=O)c1c(O)c3c(c(O)c1C2=O)C[C@@](O)(C(=O)CO)C[C@@H]3O[C@H]1C[C@H](N)[C@H](O)[C@H](C)O1 [DOXORUBICIN]
[11]
  Activity: 64.95%
[12]
  Activity: 44.63%
[13]
  Activity: 37.27%
[14]
  Activity: 4.46 10^3/mm3
[15]
  Activity: 62.52%
[16]
  Activity: 11.28 g/dL
[17]
  Activity: 5.93 10^6/mm3
[18]
  Activity: 0%
[19]
  Activity: 25%
[20]
  Activity: 0%
[21]
  Activity: 64.14%
[22]
  Activity: 50%
[23]
  Activity: 50%
[24]
  Activity: 21.94%
[25]
  Activity: 16.43 pg
[26]
  Activity: 51.14 fL
[27]
  Activity: 57.05%
[28]
  Activity: 530.5 10^3/mm3
[29]
  Activity: 129.54%
[30]
  Activity: 44.94%

## C/C(=C\C(=O)Nc1ccccc1C(=O)O)c1ccc2ccccc2c1
[1]
  inhibition: 69.6%
